{
  "source": "ChEMBL document CHEMBL1132687",
  "about": "“Synthesis and enantiopharmacology of new AMPA-kainate receptor agonists” (J Med Chem, 1999)",
  "key": {"CHO": {"test_system": "CHO", "assay": "Affinity at Metabotropic glutamate receptor (Glu1-alpha,Glu2,Glu4a) expressed in CHO cells; Not significant activity up to 1 mM concentration", "format": "cell-based"}, "Rattus norvegicus [1]": {"species": "Rattus norvegicus", "assay": "Electropharmacology on rat cortical slice preparation for EAA-evoked depolarizations;Depolarization evoked by the compound is fully antagonised by 5 uM of NBQX.", "format": "functional"}, "physchem [2]": {"assay": "physchem", "conditions": "water"}, "physchem [3]": {"assay": "physchem", "conditions": "water", "remark": "listed apart in the source"}, "physchem [4]": {"assay": "physchem", "conditions": "water", "remark": "listed apart in the source", "description": "The dissociation constant at omega-carboxyl or hydroxyl group in water at 20 degree Centigrade."}, "[5]": {"assay": "The dissociation constant at alpha-carboxyl group in water at 20 degree Centigrade. (evaluated by Uyeno., Y et. al.)", "format": "ADME", "conditions": "read-out: pKa1"}, "[6]": {"assay": "The dissociation constant at ammonium group in water at 20 degree Centigrade. (evaluated by Uyeno., Y et. al.)", "format": "ADME", "conditions": "read-out: pKa3"}, "[7]": {"assay": "The dissociation constant at omega-carboxyl or hydroxyl group iin water at 20 degree Centigrade. (evaluated by Uyeno., Y et. al.)", "format": "ADME", "conditions": "read-out: pKa2"}, "[8]": {"molecular_target": "Glutamate receptor ionotropic, kainate", "assay": "Binding affinity against Ionotropic glutamate receptor kainate using [3H]KAIN as radioligand.", "format": "protein-complex assay"}, "Rattus norvegicus [9]": {"species": "Rattus norvegicus", "assay": "Electropharmacology on rat cortical slice preparation for EAA-evoked depolarizations; Depolarization evoked by the compound is fully antagonised by 5 uM of NBQX.", "format": "functional"}, "[10]": {"molecular_target": "Glutamate receptor ionotropic, AMPA (Rattus norvegicus, UniProt P19490+P19491+P19492+P19493)", "description": "Binding affinity against Ionotropic glutamate receptor AMPA using [3H]AMPA as radioligand."}, "Rattus norvegicus [11]": {"species": "Rattus norvegicus", "assay": "Electropharmacology on rat cortical slice preparation for EAA-evoked depolarizations; Depolarization evoked by the compound is antagonised by 10 uM of CPP.", "format": "functional"}, "Rattus norvegicus [12]": {"species": "Rattus norvegicus", "assay": "Electropharmacology on rat cortical slice preparation for EAA-evoked depolarizations;", "format": "functional"}, "Glutamate NMDA receptor": {"molecular_target": "Glutamate NMDA receptor", "assay": "Binding affinity against N-methyl-D-aspartate glutamate receptor using [3H]-CPP as radioligand.", "format": "protein-complex assay"}, "Rattus norvegicus [13]": {"species": "Rattus norvegicus", "assay": "Electropharmacology on rat cortical slice preparation for EAA-evoked depolarizations;Depolarization evoked by the compound is partially antagonised by 5 uM of NBQX and fully antagonised by 20 uM of NBQX.", "format": "functional"}, "Rattus norvegicus [14]": {"species": "Rattus norvegicus", "assay": "Electropharmacology on rat cortical slice preparation for EAA-evoked depolarizations; Depolarization evoked by the compound is partially antagonised by 5 uM of NBQX and fully antagonised by 20 uM of NBQX.", "format": "functional"}, "[15]": {"assay": "The dissociation constant at ammonium group in water at 20 degree Centigrade", "format": "ADME", "conditions": "read-out: pKa3"}, "Rattus norvegicus [16]": {"species": "Rattus norvegicus", "assay": "Electropharmacology on rat cortical slice preparation for EAA-evoked depolarizations; Depolarization evoked by the compound is not antagonised by 5 uM of NBQX but fully antagonised by 20 uM of NBQX.", "format": "functional"}},
  "note": "Active and inactive are the calls of the source. No cut-off for these calls is given here.",
  "data": [
    {"molecule": "O=C(O)C1=NO[C@H]2[C@@H]1CN[C@@H]2C(=O)O", "note": "(stereo in doubt; (+)-7) [listing 1 of 2 here]", "values": [
      {"measurement": "Activity", "setting": "CHO", "value": "inactive"}
    ]},
    {"molecule": "O=C(O)C1=NO[C@H]2[C@@H]1CN[C@@H]2C(=O)O", "note": "(racemic) [listing 1 of 2 here]", "values": [
      {"measurement": "EC50", "setting": "Rattus norvegicus [1]", "value": 284, "unit": "µM"},
      {"measurement": "pKa", "setting": "physchem [2]", "value": "< 2"},
      {"measurement": "pKa", "setting": "physchem [3]", "value": 7.3},
      {"measurement": "pKa", "setting": "physchem [4]", "value": 2.6}
    ]},
    {"molecule": "N[C@@H](CCC(=O)O)C(=O)O", "note": "[GLUTAMIC ACID]", "values": [
      {"measurement": "pKa", "setting": "[5]", "value": 2.39},
      {"measurement": "pKa", "setting": "[6]", "value": 9.54},
      {"measurement": "pKa", "setting": "[7]", "value": 4.21}
    ]},
    {"molecule": "O=C(O)C1=NO[C@H]2[C@@H]1CN[C@@H]2C(=O)O", "note": "(stereo in doubt; (-)-7) [listing 1 of 2 here]", "values": [
      {"measurement": "Activity", "setting": "CHO", "value": "inactive"}
    ]},
    {"molecule": "O=C(O)C1=NO[C@H]2CN[C@H](C(=O)O)[C@@H]12", "note": "(stereo in doubt; (-)-6) [listing 1 of 2 here]", "values": [
      {"measurement": "Activity", "setting": "CHO", "value": "inactive"}
    ]},
    {"molecule": "O=C(O)C1=NO[C@H]2CN[C@H](C(=O)O)[C@@H]12", "note": "(racemic) [listing 1 of 2 here]", "values": [
      {"measurement": "Activity", "setting": "CHO", "value": "inactive"}
    ]},
    {"molecule": "O=C(O)C1=NO[C@H]2[C@@H]1CN[C@@H]2C(=O)O", "note": "(stereo in doubt; (+)-7) [listing 2 of 2 here]", "values": [
      {"measurement": "IC50", "setting": "[8]", "value": 67, "unit": "µM"},
      {"measurement": "EC50", "setting": "Rattus norvegicus [9]", "value": 251, "unit": "µM"},
      {"measurement": "IC50", "setting": "[10]", "value": 11.2, "unit": "µM"}
    ]},
    {"molecule": "CN[C@H](CC(=O)O)C(=O)O", "note": "[N-METHYL-D-ASPARTIC ACID (NMDA)]", "values": [
      {"measurement": "EC50", "setting": "Rattus norvegicus [11]", "value": 11, "unit": "µM"}
    ]},
    {"molecule": "O=C(O)C1=NO[C@H]2CN[C@H](C(=O)O)[C@@H]12", "note": "(stereo in doubt; (+)-6) [listing 1 of 2 here]", "values": [
      {"measurement": "EC50", "setting": "Rattus norvegicus [12]", "value": "> 1000", "unit": "µM"},
      {"measurement": "IC50", "setting": "[8]", "value": "> 100", "unit": "µM"},
      {"measurement": "IC50", "setting": "[10]", "value": "> 100", "unit": "µM"}
    ]},
    {"molecule": "O=C(O)C1=NO[C@H]2[C@@H]1CN[C@@H]2C(=O)O", "note": "(racemic) [listing 2 of 2 here]", "values": [
      {"measurement": "Activity", "setting": "CHO", "value": "inactive"}
    ]},
    {"molecule": "O=C1NO[C@H]2CN[C@H](C(=O)O)[C@@H]12", "note": "(racemic)", "values": [
      {"measurement": "IC50", "setting": "[8]", "value": 7.9, "unit": "µM"},
      {"measurement": "EC50", "setting": "Rattus norvegicus [11]", "value": 1000, "unit": "µM"},
      {"measurement": "Activity", "setting": "CHO", "value": "inactive"},
      {"measurement": "IC50", "setting": "Glutamate NMDA receptor", "value": "> 100", "unit": "µM"},
      {"measurement": "IC50", "setting": "[10]", "value": 42.6, "unit": "µM"}
    ]},
    {"molecule": "O=C1NO[C@H]2[C@@H]1CN[C@@H]2C(=O)O", "note": "(racemic)", "values": [
      {"measurement": "IC50", "setting": "[8]", "value": 45.3, "unit": "µM"},
      {"measurement": "EC50", "setting": "Rattus norvegicus [11]", "value": 1000, "unit": "µM"},
      {"measurement": "Activity", "setting": "CHO", "value": "inactive"},
      {"measurement": "IC50", "setting": "Glutamate NMDA receptor", "value": "> 100", "unit": "µM"},
      {"measurement": "IC50", "setting": "[10]", "value": 34.9, "unit": "µM"},
      {"measurement": "pKa", "setting": "physchem [2]", "value": 2},
      {"measurement": "pKa", "setting": "physchem [3]", "value": 8.3},
      {"measurement": "pKa", "setting": "physchem [4]", "value": 5.1}
    ]},
    {"molecule": "O=C(O)C1=NO[C@H]2CN[C@H](C(=O)O)[C@@H]12", "note": "(stereo in doubt; (-)-6) [listing 2 of 2 here]", "values": [
      {"measurement": "IC50", "setting": "[8]", "value": 0.23, "unit": "µM"},
      {"measurement": "EC50", "setting": "Rattus norvegicus [13]", "value": 3.5, "unit": "µM"},
      {"measurement": "IC50", "setting": "[10]", "value": 0.54, "unit": "µM"}
    ]},
    {"molecule": "O=C(O)C1=NO[C@H]2CN[C@H](C(=O)O)[C@@H]12", "note": "(racemic) [listing 2 of 2 here]", "values": [
      {"measurement": "EC50", "setting": "Rattus norvegicus [14]", "value": 5.4, "unit": "µM"},
      {"measurement": "pKa", "setting": "[15]", "value": 7.4},
      {"measurement": "pKa", "setting": "physchem [2]", "value": "< 2"},
      {"measurement": "pKa", "setting": "physchem [4]", "value": 2.15}
    ]},
    {"molecule": "O=C(O)C1=NO[C@H]2[C@@H]1CN[C@@H]2C(=O)O", "note": "(stereo in doubt; (-)-7) [listing 2 of 2 here]", "values": [
      {"measurement": "EC50", "setting": "Rattus norvegicus [12]", "value": "> 1000", "unit": "µM"},
      {"measurement": "IC50", "setting": "[8]", "value": "> 100", "unit": "µM"},
      {"measurement": "IC50", "setting": "Glutamate NMDA receptor", "value": "> 100", "unit": "µM"},
      {"measurement": "IC50", "setting": "[10]", "value": "> 100", "unit": "µM"}
    ]},
    {"molecule": "O=C(O)C1=NO[C@H]2CN[C@H](C(=O)O)[C@@H]12", "note": "(stereo in doubt; (+)-6) [listing 2 of 2 here]", "values": [
      {"measurement": "Activity", "setting": "CHO", "value": "inactive"}
    ]},
    {"molecule": "C=C(C)[C@H]1CN[C@H](C(=O)O)[C@H]1CC(=O)O", "note": "[KAINIC ACID]", "values": [
      {"measurement": "EC50", "setting": "Rattus norvegicus [16]", "value": 25, "unit": "µM"}
    ]}
  ]
}
